Holding throughout (assay type): functional, cell-based
What all share (conditions): oocyte

Data set [1] has as its target T1, Hepatic sodium/bile acid cotransporter (Rattus norvegicus, UniProt P26435).
T1 sequence (P26435 whole entry): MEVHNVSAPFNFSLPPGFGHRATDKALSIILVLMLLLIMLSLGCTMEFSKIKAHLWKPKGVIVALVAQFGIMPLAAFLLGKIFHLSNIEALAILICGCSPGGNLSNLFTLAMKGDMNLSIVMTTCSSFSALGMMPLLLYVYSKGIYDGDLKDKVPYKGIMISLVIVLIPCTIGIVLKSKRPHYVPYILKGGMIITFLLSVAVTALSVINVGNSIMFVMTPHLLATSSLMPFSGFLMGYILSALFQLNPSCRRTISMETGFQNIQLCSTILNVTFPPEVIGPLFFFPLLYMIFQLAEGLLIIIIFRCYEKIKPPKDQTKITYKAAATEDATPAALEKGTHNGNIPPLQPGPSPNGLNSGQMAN
The experiment in a line: TP_TRANSPORTER: inhibition of Taurocholate uptake (Taurochorate: 17 uM, Bumetanide: 500 uM) in Xenopus laevis oocytes.

Data set [2] has as its target T1, Hepatic sodium/bile acid cotransporter. The experiment in a line: TP_TRANSPORTER: inhibition of Taurocholate uptake (Taurochorate: 17 uM, Probenecid: 1000 uM) in Xenopus laevis oocytes.
Data set [3] has the same target. As to the kind of experiment: TP_TRANSPORTER: inhibition of Taurocholate uptake (Taurochorate: 17 uM, BSP: 100 uM) in Xenopus laevis oocytes.
Data set [4] shares this target. As to the kind of experiment: TP_TRANSPORTER: inhibition of Taurocholate uptake (Taurochorate: 17 uM, TCDC: 100 uM) in Xenopus laevis oocytes.

`CCCCNc1cc(C(=O)O)cc(S(N)(=O)=O)c1Oc1ccccc1` [BUMETANIDE]: in data set [1], the Activity entry was “inhibitor [(at a rough estimate) 50 % of control]”. Take `CCCN(CCC)S(=O)(=O)c1ccc(C(=O)O)cc1` [PROBENECID]: in data set [2], the Activity result is “inhibitor [(at a rough estimate) 70 % of control]”. For the molecule `O=C1OC(c2ccc(O)c(S(=O)(=O)[O-])c2)(c2ccc(O)c(S(=O)(=O)[O-])c2)c2c(Br)c(Br)c(Br)c(Br)c21.[Na+].[Na+]` [SULFOBROMOPHTHALEIN SODIUM], the Activity result in data set [3] was “inhibitor [(at a rough estimate) 25 % of control]”. Consider `C[C@H](CCC(=O)NCCS(=O)(=O)O)[C@H]1CC[C@H]2[C@@H]3[C@H](O)C[C@@H]4C[C@H](O)CC[C@]4(C)[C@H]3CC[C@]12C` [TAUROCHENODEOXYCHOLATE], for which, in data set [4], the Activity entry was “inhibitor [(at a rough estimate) 15 % of control]”.

The values above are taken from ChEMBL document CHEMBL2074189, “Functional expression cloning and characterization of the hepatocyte Na+/bile acid cotransport system” (Proc Natl Acad Sci U S A, 1991).
